ChEMBL document CHEMBL1125558 (J Med Chem, 1992)

Experiments:
Assay type in all cases: functional
Rattus norvegicus [1] = assay: Percent response at dose 2.5 mg/kg evaluated by dose-response tests in trained rats(post injection interval 15 min)
Rattus norvegicus [2] = assay: Percent response at dose 5 mg/kg evaluated by dose-response tests in trained rats(post injection interval 15 min)
Rattus norvegicus [3] = assay: Percent response at dose 0.62 mg/kg evaluated by dose-response tests in trained rats(post injection interval 15 min)
Rattus norvegicus [4] = assay: Percent response at dose 1.25 mg/kg evaluated by dose-response tests in trained rats(post injection interval 15 min)
Rattus norvegicus [5] = assay: Percent response at dose 10 mg/kg evaluated by dose-response tests in trained rats(post injection interval 15 min)
Rattus norvegicus [6] = assay: Percent response at dose 10 mg/kg evaluated by temporal tests in trained rats(post injection interval 120 min)
Rattus norvegicus [7] = assay: Percent response at dose 10 mg/kg evaluated by temporal tests in trained rats(post injection interval 15 min)
Rattus norvegicus [8] = assay: Percent response at dose 10 mg/kg evaluated by temporal tests in trained rats(post injection interval 30 min)
Rattus norvegicus [9] = assay: Percent response at dose 10 mg/kg evaluated by temporal tests in trained rats(post injection interval 5 min)
Rattus norvegicus [10] = assay: Percent response at dose 10 mg/kg evaluated by temporal tests in trained rats(post injection interval 60 min)
Rattus norvegicus [11] = assay: Number of animals(n) completing 20 responses on either lever out of the number of animals tested (N) at dose 0.62 mg/kg evaluated by dose-response tests in trained rats(post injection interval 15 min); n/N=7/7
Rattus norvegicus [12] = assay: Number of animals(n) completing 20 responses on either lever out of the number of animals tested (N) at dose 1.25 mg/kg evaluated by dose-response tests in trained rats(post injection interval 15 min); n/N=7/7
Rattus norvegicus [13] = assay: Number of animals(n) completing 20 responses on either lever out of the number of animals tested (N) at dose 10 mg/kg evaluated by dose-response tests in trained rats(post injection interval 15 min); n/N=7/7
Rattus norvegicus [14] = assay: Number of animals(n) completing 20 responses on either lever out of the number of animals tested (N) at dose 10 mg/kg evaluated by temporal tests in trained rats(post injection interval 15 min); n/N=7/7
Rattus norvegicus [15] = assay: Number of animals(n) completing 20 responses on either lever out of the number of animals tested (N) at dose 10 mg/kg evaluated by temporal tests in trained rats(post injection interval 30 min); n/N=7/7
Rattus norvegicus [16] = assay: Number of animals(n) completing 20 responses on either lever out of the number of animals tested (N) at dose 10 mg/kg evaluated by temporal tests in trained rats(post injection interval 5 min); n/N=7/7
Rattus norvegicus [17] = assay: Number of animals(n) completing 20 responses on either lever out of the number of animals tested (N) at dose 10 mg/kg evaluated by temporal tests in trained rats(post injection interval 60 min); n/N=7/7
Rattus norvegicus [18] = assay: Number of animals(n) completing 20 responses on either lever out of the number of animals tested (N) at dose 2.5 mg/kg evaluated by dose-response tests in trained rats(post injection interval 15 min); n/N=7/7
Rattus norvegicus [19] = assay: Number of animals(n) completing 20 responses on either lever out of the number of animals tested (N) at dose 5 mg/kg evaluated by dose-response tests in trained rats; n/N=7/7
Rattus norvegicus [20] = assay: Number of animals(n) completing 20 responses on either lever out of the number of animals tested (N) at dose 10 mg/kg evaluated by temporal tests in trained rats(post injection interval 120 min); n/N=7/7
Rattus norvegicus [21] = assay: Mean responses per minute at dose 10 mg/kg evaluated by dose-response tests in trained rats(post injection interval 15 min)
Rattus norvegicus [22] = assay: Mean responses per minute at dose 10 mg/kg evaluated by temporal tests in trained rats(post injection interval 15 min)
Rattus norvegicus [23] = assay: Mean responses per minute at dose 10 mg/kg evaluated by temporal tests in trained rats(post injection interval 30 min)
Rattus norvegicus [24] = assay: Mean responses per minute at dose 10 mg/kg evaluated by temporal tests in trained rats(post injection interval 5 min)
Rattus norvegicus [25] = assay: Mean responses per minute at dose 10 mg/kg evaluated by temporal tests in trained rats(post injection interval 60 min)
Rattus norvegicus [26] = assay: Mean responses per minute at dose 2.5 mg/kg evaluated by dose-response tests in trained rats(post injection interval 15 min)
Rattus norvegicus [27] = assay: Mean responses per minute at dose 5 mg/kg evaluated by dose-response tests in trained rats(post injection interval 15 min)
Rattus norvegicus [28] = assay: Mean responses per minute at dose 0.62 mg/kg evaluated by dose-response tests in trained rats(post injection interval 15 min)
Rattus norvegicus [29] = assay: Mean responses per minute at dose 1.25 mg/kg evaluated by dose-response tests in trained rats(post injection interval 15 min)
Rattus norvegicus [30] = assay: Mean responses per minute at dose 10 mg/kg evaluated by temporal tests in trained rats(post injection interval 120 min)

Compound: COC(=O)[C@H]1[C@@H](OC(=O)c2ccccc2)C[C@@H]2CC[C@H]1N2C [COCAINE]
- Drug response (Rattus norvegicus [1]): 61%
- Drug response (Rattus norvegicus [2]): 98%
- Drug response (Rattus norvegicus [3]): 6%
- Drug response (Rattus norvegicus [4]): 44%
- Drug response (Rattus norvegicus [5]): 99%
- Drug response (Rattus norvegicus [6]): 31%
- Drug response (Rattus norvegicus [7]): 99%
- Drug response (Rattus norvegicus [8]): 100%
- Drug response (Rattus norvegicus [9]): 85%
- Drug response (Rattus norvegicus [10]): 81%
- No. resp animals / Total (Rattus norvegicus [11]): 7 / 7
- n/N (Rattus norvegicus [12]): 7 / 7
- No. resp animals / Total (Rattus norvegicus [13]): 7 / 7
- No. resp animals / Total (Rattus norvegicus [14]): 7 / 7
- No. resp animals / Total (Rattus norvegicus [15]): 7 / 7
- No. resp animals / Total (Rattus norvegicus [16]): 7 / 7
- No. resp animals / Total (Rattus norvegicus [17]): 7 / 7
- No. resp animals / Total (Rattus norvegicus [18]): 7 / 7
- No. resp animals / Total (Rattus norvegicus [19]): 7 / 7
- No. resp animals / Total (Rattus norvegicus [20]): 7 / 7
- Rate response (Rattus norvegicus [21]): 76 min⁻¹
- Rate response (Rattus norvegicus [22]): 76 min⁻¹
- Rate response (Rattus norvegicus [23]): 61 min⁻¹
- Rate response (Rattus norvegicus [24]): 28 min⁻¹
- Rate response (Rattus norvegicus [25]): 23 min⁻¹
- Rate response (Rattus norvegicus [26]): 32 min⁻¹
- Rate response (Rattus norvegicus [27]): 89 min⁻¹
- Rate response (Rattus norvegicus [28]): 27 min⁻¹
- Rate response (Rattus norvegicus [29]): 21 min⁻¹
- Rate response (Rattus norvegicus [30]): 28 min⁻¹
